Measurements as given in ChEMBL document CHEMBL1155461, “Emerging targets in osteoporosis disease modification” (J Med Chem, 2010).

Legend:
Mus musculus = experiment: Induction of bone formation in mouse assessed as increase in bone mineral content at 300 ug/kg administered into dorsal muscle pouch relative to control; format: functional, Muscle tissue
[1] = target: Prostaglandin E2 receptor EP4 subtype (Mus musculus, UniProt P32240); experiment: Agonist activity at mouse EP4 receptor expressed in CHO cells assessed as cAMP production; format: functional, cell-based
Chain of Prostaglandin E2 receptor EP4 subtype (P32240 whole entry): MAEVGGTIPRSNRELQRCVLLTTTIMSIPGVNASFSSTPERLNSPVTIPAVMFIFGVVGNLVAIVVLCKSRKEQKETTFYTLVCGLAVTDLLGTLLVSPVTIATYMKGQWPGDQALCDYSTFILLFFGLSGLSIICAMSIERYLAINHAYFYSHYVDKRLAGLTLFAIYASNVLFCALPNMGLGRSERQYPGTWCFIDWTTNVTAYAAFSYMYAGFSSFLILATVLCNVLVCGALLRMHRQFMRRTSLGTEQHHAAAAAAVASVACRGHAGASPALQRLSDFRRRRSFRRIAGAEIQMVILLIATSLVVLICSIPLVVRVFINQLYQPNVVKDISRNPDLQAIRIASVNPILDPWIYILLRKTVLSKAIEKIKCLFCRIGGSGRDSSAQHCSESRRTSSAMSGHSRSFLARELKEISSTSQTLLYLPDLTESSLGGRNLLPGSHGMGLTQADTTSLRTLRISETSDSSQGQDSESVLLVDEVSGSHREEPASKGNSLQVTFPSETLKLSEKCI

[2] = target: Prostaglandin E2 receptor EP3 subtype (Mus musculus, UniProt P30557); experiment: Binding affinity to mouse EP3 receptor by competitive binding assay
Chain of Prostaglandin E2 receptor EP3 subtype (P30557 whole entry): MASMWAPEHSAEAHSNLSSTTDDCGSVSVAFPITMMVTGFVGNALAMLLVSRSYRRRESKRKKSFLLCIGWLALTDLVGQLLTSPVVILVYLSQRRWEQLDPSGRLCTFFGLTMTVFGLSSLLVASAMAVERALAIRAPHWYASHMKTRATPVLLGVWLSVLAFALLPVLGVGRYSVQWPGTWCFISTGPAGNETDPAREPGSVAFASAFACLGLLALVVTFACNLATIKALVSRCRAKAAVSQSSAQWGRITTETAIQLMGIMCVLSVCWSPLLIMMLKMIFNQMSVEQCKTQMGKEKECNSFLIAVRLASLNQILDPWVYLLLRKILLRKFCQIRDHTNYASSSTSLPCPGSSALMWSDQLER

Rattus norvegicus [3] = experiment: Induction of bone formation in ovariectomized rat assessed as trabecular bone mineral content at 3 ug/kg, sc BID for 11 weeks (RVb = 200 mg/cm3); format: functional, Trabecula
Cynomolgus monkey [4] = experiment: Antiosteoporotic activity in cynomolgus monkey assessed as decrease in bone resorption-associated serum CTX-1 level at 10 mg/kg, po administered 5X a day; format: functional; conditions: Macaca fascicularis
Cynomolgus monkey [5] = experiment: Antiosteoporotic activity in cynomolgus monkey assessed as increase in lumbar vertebrae bone strength at 1000 mg/kg administered daily for 1 year; format: functional, Macaca fascicularis, Lumbar vertebra
Cynomolgus monkey [6] = experiment: Antiosteoporotic activity in cynomolgus monkey assessed as increase in lumbar vertebrae bone strength at 30 mg/kg administered daily for 1 year; format: functional, Macaca fascicularis, Lumbar vertebra
Cynomolgus monkey [7] = experiment: Antiosteoporotic activity in cynomolgus monkey assessed as decrease in bone resorption-associated urinary CTX-1 level at 10 mg/kg, po administered as single dose; format: functional; conditions: Macaca fascicularis, Urine
Cynomolgus monkey [8] = experiment: Antiosteoporotic activity in cynomolgus monkey assessed as decrease in bone resorption-associated urinary CTX-1 level at 10 mg/kg, po administered 5X a day; format: functional; conditions: Macaca fascicularis, Urine
Cynomolgus monkey [9] = experiment: Antiosteoporotic activity in cynomolgus monkey assessed as decrease in bone resorption-associated serum CTX-1 level at 10 mg/kg, po administered as single dose; format: functional; conditions: Macaca fascicularis
[10] = Half life in po dosed rat; format: ADME, organism-based; conditions: in vivo
[11] = Clearance in po dosed rat; format: ADME, organism-based; conditions: in vivo
Homo sapiens [12] = experiment: Antiosteoporotic activity in postmenopausal woman with osteoporosis assessed as increase in femoral neck bone mineral density at 200 mg/kg BID for 12 months; format: functional
Homo sapiens [13] = experiment: Antiosteoporotic activity in postmenopausal woman with osteoporosis assessed as increase in hip bone mineral density at 200 mg/kg BID for 12 months; format: functional, Bone of hip region
[14] = Selectivity for integrin alphaVbeta3 over integrin alphaVbeta5
Rattus norvegicus [15] = experiment: Antiosteoporotic activity in rat assessed as increase in distal femoral metaphysis bone mineral density at 10 mg/kg BID for 28 days relative to control; format: functional
Homo sapiens [16] = species on record: Homo sapiens; experiment: Plasma protein binding in human; conditions: read-out: PPB (converted)
[17] = Clearance in po dosed dog; format: ADME, organism-based, Canis lupus familiaris; conditions: in vivo
Homo sapiens [18] = experiment: Antiosteoporotic activity in postmenopausal woman with osteoporosis assessed as increase in lumbar spine bone mineral density at 200 mg/kg BID for 12 months; format: functional
Rattus norvegicus [19] = experiment: Antiosteoporotic activity in rat assessed as increase in distal femoral metaphysis bone mineral density at 30 mg/kg BID for 28 days relative to control; format: functional
Rhesus monkey = experiment: Antiosteoporotic activity in rhesus monkey assessed as decrease in bone resorption-associated urinary NTX-1 level at 15 mg/kg QD for 14 days; format: functional, Macaca mulatta, Urine; design: scale not given: the % may be the effect or the level left
Homo sapiens [20] = experiment: Induction of bone formation in postmenopausal woman assessed as increase in PINP level at […] after 28 days relative to placebo control; format: functional
Homo sapiens [21] = experiment: Induction of bone formation in postmenopausal woman assessed as increase in osteocalcin level at […] after 28 days relative to placebo control; format: functional
Homo sapiens [22] = experiment: Induction of bone formation in postmenopausal woman assessed as increase in ALP level at […] after 28 days relative to placebo control; format: functional
Rattus norvegicus [23] = experiment: Elevated PTH levels in ovariectomised rats as Cmax after 120 mg/kg oral dose; format: functional, organism-based; design: dose 120 mg/kg
Rattus norvegicus [24] = experiment: Elevated PTH levels in ovariectomised rats as Cmax after 30 mg/kg oral dose; format: functional, organism-based; design: dose 30 mg/kg
Rattus norvegicus [25] = experiment: Elevated PTH levels in ovariectomised rats as Cmax after 60 mg/kg oral dose; format: functional, organism-based; design: dose 60 mg/kg
[26] = Selectivity for cathepsin K over cathepsin B
[27] = Selectivity for cathepsin K over cathepsin S
Osteoclast = experiment: Inhibition of bone resorption in human osteoclast assessed as decrease in CTX-1 level at 100 uM; format: functional
[28] = Selectivity for cathepsin K over cathepsin L
Cathepsin K = Cathepsin K (Rattus norvegicus, UniProt O35186); experiment: Inhibition of rat cathepsin K
Chain of Cathepsin K (O35186 whole entry): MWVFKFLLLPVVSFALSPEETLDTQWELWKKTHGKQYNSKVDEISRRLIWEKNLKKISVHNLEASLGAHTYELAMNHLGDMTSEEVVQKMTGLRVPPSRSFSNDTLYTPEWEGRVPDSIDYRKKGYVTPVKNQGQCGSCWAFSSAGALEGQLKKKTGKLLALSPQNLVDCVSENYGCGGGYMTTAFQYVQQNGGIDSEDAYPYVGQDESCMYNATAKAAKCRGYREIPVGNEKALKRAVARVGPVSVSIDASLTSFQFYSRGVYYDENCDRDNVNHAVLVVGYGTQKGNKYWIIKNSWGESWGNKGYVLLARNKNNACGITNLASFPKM

[29] = Cmax in rat at 50 mg/kg, po; format: ADME, organism-based; design: dose 50 mg/kg, route oral; conditions: in vivo
[30] = AUC in rat at 50 mg/kg, po; format: ADME, organism-based; design: dose 50 mg/kg, route oral; conditions: plasma
[31] = target: Extracellular calcium-sensing receptor (Bos taurus, UniProt P35384); experiment: Inhibition of CaSR in bovine parathyroid cells assessed as increase in PTH level; format: cell-based
Chain of Extracellular calcium-sensing receptor (P35384 whole entry): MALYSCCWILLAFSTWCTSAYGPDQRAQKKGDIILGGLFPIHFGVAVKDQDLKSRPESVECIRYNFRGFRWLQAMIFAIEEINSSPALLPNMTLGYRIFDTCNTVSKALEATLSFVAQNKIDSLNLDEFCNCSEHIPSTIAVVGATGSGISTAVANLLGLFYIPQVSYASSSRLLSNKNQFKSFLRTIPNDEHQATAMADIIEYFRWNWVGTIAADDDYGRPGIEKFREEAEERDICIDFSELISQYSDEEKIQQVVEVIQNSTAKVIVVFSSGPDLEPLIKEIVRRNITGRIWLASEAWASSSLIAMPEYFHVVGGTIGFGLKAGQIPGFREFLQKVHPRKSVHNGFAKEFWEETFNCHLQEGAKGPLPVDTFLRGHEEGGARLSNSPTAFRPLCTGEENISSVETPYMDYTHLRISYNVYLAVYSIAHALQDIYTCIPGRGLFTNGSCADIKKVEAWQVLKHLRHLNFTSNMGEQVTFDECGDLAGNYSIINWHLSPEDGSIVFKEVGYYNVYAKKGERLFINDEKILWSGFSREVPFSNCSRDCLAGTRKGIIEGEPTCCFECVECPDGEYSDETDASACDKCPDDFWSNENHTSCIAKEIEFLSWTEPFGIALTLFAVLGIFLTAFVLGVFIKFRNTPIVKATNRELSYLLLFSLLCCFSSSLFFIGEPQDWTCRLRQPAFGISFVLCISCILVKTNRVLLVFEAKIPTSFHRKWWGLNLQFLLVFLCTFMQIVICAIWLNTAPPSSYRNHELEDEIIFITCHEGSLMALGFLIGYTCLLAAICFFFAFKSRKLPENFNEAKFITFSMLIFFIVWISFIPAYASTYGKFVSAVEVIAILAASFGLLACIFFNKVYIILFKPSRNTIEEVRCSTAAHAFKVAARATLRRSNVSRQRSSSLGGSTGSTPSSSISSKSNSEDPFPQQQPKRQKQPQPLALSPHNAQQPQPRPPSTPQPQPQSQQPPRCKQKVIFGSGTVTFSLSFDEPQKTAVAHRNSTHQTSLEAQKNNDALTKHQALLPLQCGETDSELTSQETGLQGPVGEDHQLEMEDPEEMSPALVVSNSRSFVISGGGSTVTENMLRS

COCc1cccc(C[C@H](O)/C=C/[C@H]2[C@H](O)CC(=O)[C@@H]2CCSCCCC(=O)OC)c1 [RIVENPROST]
fold change (FC) (Mus musculus): 3 | EC50 [1]: 1.6 nM | Ki [2]: 56 nM | Activity (Rattus norvegicus [3]): 378 mg/cm3

CC(C)C[C@H](NC(=O)c1cc2ccccc2o1)C(=O)N[C@H]1CC[C@@H](C)N(S(=O)(=O)c2ccccn2)CC1=O [RELACATIB]
inhibition in vivo at 10 mg/kg (Cynomolgus monkey [4]): ≤ 57% | Activity (Cynomolgus monkey [5]): 49% | Activity (Cynomolgus monkey [6]): 42% | inhibition in vivo at 10 mg/kg (Cynomolgus monkey [7]): ≤ 57% | inhibition in vivo at 10 mg/kg (Cynomolgus monkey [8]): ≤ 57% | inhibition in vivo at 10 mg/kg (Cynomolgus monkey [9]): ≤ 57%

COc1ccc([C@H](CC(=O)O)N2CCN(CCCc3ccc4c(n3)NCCC4)C2=O)cn1
half-life [10]: 3 h | CL/F [11]: 47 mL/min/kg | Activity (Homo sapiens [12]): 2.4% | Activity (Homo sapiens [13]): 1.7% | Selectivity ratio [14]: 125 | Activity (Rattus norvegicus [15]): 8.9% | fraction unbound (Homo sapiens [16]): 0.12 | CL/F [17]: 6.4 mL/min/kg | Activity (Homo sapiens [18]): 3.5% | Activity (Rattus norvegicus [19]): 12.8% | Activity (Rhesus monkey): 39%

CC(C)(CC1Cc2ccccc2C1)NC[C@@H](O)COc1cc(CCC(=O)O)cc(F)c1F.Cl [RONACALERET HYDROCHLORIDE]
Activity (Homo sapiens [20]): 79% | Activity (Homo sapiens [21]): 63% | Activity (Homo sapiens [22]): 35% | Cmax PTH (Rattus norvegicus [23]): 68 pM | Cmax PTH (Rattus norvegicus [24]): 33 pM | Cmax PTH (Rattus norvegicus [25]): 66 pM

CC(C)C[C@H](NC(=O)c1ccc(C(C)(C)C)cc1)C(=O)N1CC[C@@H]2[C@H]1C(=O)CN2C(=O)c1ccccc1
Selectivity ratio [26]: > 990 | Selectivity ratio [27]: > 446 | inhibition at 100 µM (Osteoclast): 75% | Selectivity ratio [28]: > 347

CC[C@@H](CNc1ccc(OCC(=O)O)cc1)NC(=O)C1(Nc2cccc(-c3ccccc3)c2)CCCCC1
Selectivity ratio [26]: > 4170 | IC50 (Cathepsin K): 58 nM | Selectivity ratio [27]: 2080 | Cmax [29]: 9200 ng/mL | AUC [30]: 104 µg·h/mL | Selectivity ratio [28]: > 4170

CC(C)(Cc1ccc2ccccc2c1)NC[C@@H](O)COc1cccc(Cl)c1C#N
EC50 [31]: 41 nM
